Test results published in the supplement of paper PMC11451515.

System: SEM cells
Experiment: cell viability relative to DMSO control; higher = less cytotoxic
Conditions: 48 h
How it was run: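 NOMO1, SEM and P12-Ichikawa leukemia cells spent at least four passages adapting to each medium before use. They were seeded at 500 cells/well (NOMO1, SEM) or 1000 cells/well (P12-Ichikawa) in 5 μl in 1536-well plates and pin-dosed with library compounds in DMSO at 11 threefold steps from 47 μM down to 0.79 nM. After 48 h at 37°C, CellTiter-Glo One luminescence was read. Viability is reported as a percentage of the DMSO wells on each plate, with cell-free wells as background.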

[1] = HPLM + 10% dialyzed FBS, 0.000781 µM
[2] = HPLM + 10% dialyzed FBS, 0.00234 µM
[3] = HPLM + 10% dialyzed FBS, 0.00702 µM
[4] = HPLM + 10% dialyzed FBS, 0.0211 µM
[5] = HPLM + 10% dialyzed FBS, 0.0632 µM
[6] = HPLM + 10% dialyzed FBS, 0.19 µM
[7] = HPLM + 10% dialyzed FBS, 0.569 µM
[8] = HPLM + 10% dialyzed FBS, 1.71 µM
[9] = HPLM + 10% dialyzed FBS, 5.12 µM
[10] = HPLM + 10% dialyzed FBS, 15.4 µM
[11] = HPLM + 10% dialyzed FBS, 46.1 µM
[12] = RPMI 5 mM glucose + 10% FBS, 0.000781 µM
[13] = RPMI 5 mM glucose + 10% FBS, 0.00234 µM
[14] = RPMI 5 mM glucose + 10% FBS, 0.00702 µM
[15] = RPMI 5 mM glucose + 10% FBS, 0.0211 µM
[16] = RPMI 5 mM glucose + 10% FBS, 0.0632 µM
[17] = RPMI 5 mM glucose + 10% FBS, 0.19 µM
[18] = RPMI 5 mM glucose + 10% FBS, 0.569 µM
[19] = RPMI 5 mM glucose + 10% FBS, 1.71 µM
[20] = RPMI 5 mM glucose + 10% FBS, 5.12 µM
[21] = RPMI 5 mM glucose + 10% FBS, 15.4 µM
[22] = RPMI 5 mM glucose + 10% FBS, 46.1 µM
[23] = RPMI 5 mM glucose + 10% dialyzed FBS, 0.000781 µM
[24] = RPMI 5 mM glucose + 10% dialyzed FBS, 0.00234 µM
[25] = RPMI 5 mM glucose + 10% dialyzed FBS, 0.00702 µM
[26] = RPMI 5 mM glucose + 10% dialyzed FBS, 0.0211 µM
[27] = RPMI 5 mM glucose + 10% dialyzed FBS, 0.0632 µM
[28] = RPMI 5 mM glucose + 10% dialyzed FBS, 0.19 µM
[29] = RPMI 5 mM glucose + 10% dialyzed FBS, 0.569 µM
[30] = RPMI 5 mM glucose + 10% dialyzed FBS, 1.71 µM
[31] = RPMI 5 mM glucose + 10% dialyzed FBS, 5.12 µM
[32] = RPMI 5 mM glucose + 10% dialyzed FBS, 15.4 µM
[33] = RPMI 5 mM glucose + 10% dialyzed FBS, 46.1 µM

CCC(=O)N1CCN(CC1)C2=C(C=C(C=C2)N3C(=O)\C=C/C4=C3C5=CC(=CC=C5N=C4)C6=CN=C7C=CC=CC7=C6)C(F)(F)F
cell viability [1]: 77.6%
cell viability [2]: 88.7%
cell viability [3]: 85.9%
cell viability [4]: 73.8%
cell viability [5]: 57.8%
cell viability [6]: 67.8%
cell viability [7]: 46.9%
cell viability [8]: 48.7%
cell viability [9]: 47.5%
cell viability [10]: 34.4%
cell viability [11]: 29%
cell viability [12]: 97%
cell viability [13]: 102%
cell viability [14]: 90.1%
cell viability [15]: 80.6%
cell viability [16]: 56.7%
cell viability [17]: 59.7%
cell viability [18]: 48%
cell viability [19]: 45%
cell viability [20]: 45%
cell viability [21]: 47.9%
cell viability [22]: 30.9%
cell viability [23]: 83.4%
cell viability [24]: 92.6%
cell viability [25]: 91.5%
cell viability [26]: 84.1%
cell viability [27]: 61.2%
cell viability [28]: 62.7%
cell viability [29]: 46%
cell viability [30]: 54.7%
cell viability [31]: 42.5%
cell viability [32]: 42.8%
cell viability [33]: 33.1%

CCCCCN(C)CCC(O)(P(=O)([O-])O)P(=O)(O)O
cell viability [1]: 57.1%
cell viability [2]: 71.9%
cell viability [3]: 72.8%
cell viability [4]: 85.3%
cell viability [5]: 71.8%
cell viability [6]: 91.8%
cell viability [7]: 88.3%
cell viability [8]: 21.9%
cell viability [9]: 82.8%
cell viability [10]: 104%
cell viability [11]: 75.2%
cell viability [12]: 74.5%
cell viability [13]: 88.1%
cell viability [14]: 84.1%
cell viability [15]: 90.4%
cell viability [16]: 75.5%
cell viability [17]: 100%
cell viability [18]: 98.3%
cell viability [19]: 16.9%
cell viability [20]: 77.5%
cell viability [21]: 107%
cell viability [22]: 73.3%
cell viability [23]: 70%
cell viability [24]: 85.4%
cell viability [25]: 69%
cell viability [26]: 95.7%
cell viability [27]: 71.5%
cell viability [28]: 87.9%
cell viability [29]: 83.2%
cell viability [30]: 17.4%
cell viability [31]: 86.4%
cell viability [32]: 102%
cell viability [33]: 78.4%

CC[C@H](C)C(=O)O[C@H]1C[C@@H](C)\C=C2\C=C/[C@H](C)[C@H](CC[C@@H]3C[C@@H](O)CC(=O)O3)[C@@H]12
cell viability [1]: 71.1%
cell viability [2]: 85.1%
cell viability [3]: 100%
cell viability [4]: 87.9%
cell viability [5]: 90.3%
cell viability [6]: 93.8%
cell viability [7]: 56.6%
cell viability [8]: 86%
cell viability [9]: 82.6%
cell viability [10]: 59.8%
cell viability [11]: 65.7%
cell viability [12]: 51.9%
cell viability [13]: 91.1%
cell viability [14]: 92.5%
cell viability [15]: 89.8%
cell viability [16]: 93.2%
cell viability [17]: 95%
cell viability [18]: 84.8%
cell viability [19]: 81.9%
cell viability [20]: 81.2%
cell viability [21]: 63.2%
cell viability [22]: 64.5%
cell viability [23]: 80.9%
cell viability [24]: 84.6%
cell viability [25]: 106%
cell viability [26]: 92.6%
cell viability [27]: 97%
cell viability [28]: 108%
cell viability [29]: 30%
cell viability [30]: 99.8%
cell viability [31]: 98%
cell viability [32]: 71.6%
cell viability [33]: 61.1%

CC(C)(C)NCC(O)c1ccc(O)c(CO)c1 (centres undefined)
cell viability [1]: 101%
cell viability [2]: 99.4%
cell viability [3]: 103%
cell viability [4]: 106%
cell viability [5]: 113%
cell viability [6]: 102%
cell viability [7]: 112%
cell viability [8]: 106%
cell viability [9]: 104%
cell viability [10]: 109%
cell viability [11]: 93.6%
cell viability [12]: 118%
cell viability [13]: 113%
cell viability [14]: 115%
cell viability [15]: 112%
cell viability [16]: 108%
cell viability [17]: 125%
cell viability [18]: 109%
cell viability [19]: 95.5%
cell viability [20]: 107%
cell viability [21]: 108%
cell viability [22]: 111%
cell viability [23]: 96.9%
cell viability [24]: 112%
cell viability [25]: 109%
cell viability [26]: 124%
cell viability [27]: 115%
cell viability [28]: 114%
cell viability [29]: 111%
cell viability [30]: 116%
cell viability [31]: 120%
cell viability [32]: 122%
cell viability [33]: 114%

C/C=C(\C)C(=O)N[C@@H](c1ccccc1)[C@@H](O)C(=O)O[C@H]1C[C@@]2(O)[C@@H](OC(=O)c3ccccc3)[C@@H]3[C@]4(OC(C)=O)CO[C@@H]4C[C@H](O)[C@@]3(C)C(=O)[C@H](OC(C)=O)C(=C1C)C2(C)C
cell viability [1]: 34%
cell viability [2]: 24.3%
cell viability [3]: 33.2%
cell viability [4]: 20.6%
cell viability [5]: 19.2%
cell viability [6]: 19.8%
cell viability [7]: 14.9%
cell viability [8]: 19.6%
cell viability [9]: 19.9%
cell viability [10]: 15.9%
cell viability [11]: 20.5%
cell viability [12]: 45.4%
cell viability [13]: 22.3%
cell viability [14]: 23.3%
cell viability [15]: 18.4%
cell viability [16]: 14.1%
cell viability [17]: 15.5%
cell viability [18]: 15.4%
cell viability [19]: 14.9%
cell viability [20]: 14.3%
cell viability [21]: 12.5%
cell viability [22]: 12.2%
cell viability [23]: 32.4%
cell viability [24]: 26.1%
cell viability [25]: 25%
cell viability [26]: 17.5%
cell viability [27]: 16.2%
cell viability [28]: 13.6%
cell viability [29]: 13.1%
cell viability [30]: 14.7%
cell viability [31]: 16.6%
cell viability [32]: 15.5%
cell viability [33]: 16.2%

OC[C@H]1OC(O)C[C@@H](O)[C@@H]1O (some centres undefined)
cell viability [1]: 83.6%
cell viability [2]: 32.6%
cell viability [3]: 104%
cell viability [4]: 99.5%
cell viability [5]: 92.4%
cell viability [6]: 96%
cell viability [7]: 92.8%
cell viability [8]: 101%
cell viability [9]: 101%
cell viability [10]: 97.8%
cell viability [11]: 97.9%
cell viability [12]: 95.6%
cell viability [13]: 26.8%
cell viability [14]: 118%
cell viability [15]: 116%
cell viability [16]: 114%
cell viability [17]: 115%
cell viability [18]: 118%
cell viability [19]: 125%
cell viability [20]: 109%
cell viability [21]: 136%
cell viability [22]: 127%
cell viability [23]: 97.6%
cell viability [24]: 37.5%
cell viability [25]: 116%
cell viability [26]: 104%
cell viability [27]: 118%
cell viability [28]: 113%
cell viability [29]: 120%
cell viability [30]: 120%
cell viability [31]: 109%
cell viability [32]: 116%
cell viability [33]: 119%

N#CC1(c2cccc(C(=O)Nc3cc(Oc4ccc5nc(NC(=O)C6CC6)sc5n4)ccc3F)c2Cl)CC1
cell viability [1]: 93.5%
cell viability [2]: 95.8%
cell viability [3]: 106%
cell viability [4]: 93.9%
cell viability [5]: 117%
cell viability [6]: 118%
cell viability [7]: 102%
cell viability [8]: 94.9%
cell viability [9]: 82.1%
cell viability [10]: 46.7%
cell viability [11]: 30.6%
cell viability [12]: 75.1%
cell viability [13]: 89%
cell viability [14]: 90.5%
cell viability [15]: 74.5%
cell viability [16]: 84.1%
cell viability [17]: 68.2%
cell viability [18]: 74.5%
cell viability [19]: 59.1%
cell viability [20]: 39.4%
cell viability [21]: 17.4%
cell viability [22]: 17.6%
cell viability [23]: 101%
cell viability [24]: 106%
cell viability [25]: 106%
cell viability [26]: 105%
cell viability [27]: 105%
cell viability [28]: 102%
cell viability [29]: 108%
cell viability [30]: 83.2%
cell viability [31]: 69.6%
cell viability [32]: 37.1%
cell viability [33]: 26.3%

c1coc(CNc2ncnc3nc[nH]c23)c1
cell viability [1]: 112%
cell viability [2]: 101%
cell viability [3]: 112%
cell viability [4]: 103%
cell viability [5]: 116%
cell viability [6]: 118%
cell viability [7]: 123%
cell viability [8]: 110%
cell viability [9]: 130%
cell viability [10]: 127%
cell viability [11]: 103%
cell viability [12]: 110%
cell viability [13]: 120%
cell viability [14]: 116%
cell viability [15]: 121%
cell viability [16]: 124%
cell viability [17]: 110%
cell viability [18]: 119%
cell viability [19]: 120%
cell viability [20]: 143%
cell viability [21]: 119%
cell viability [22]: 105%
cell viability [23]: 105%
cell viability [24]: 115%
cell viability [25]: 106%
cell viability [26]: 114%
cell viability [27]: 111%
cell viability [28]: 114%
cell viability [29]: 97.4%
cell viability [30]: 109%
cell viability [31]: 115%
cell viability [32]: 119%
cell viability [33]: 96.1%
